Values joined by “and” are separate entries in the source; they are usually repeats but may differ in a detail not shown here. Equal entries are not always repeated.
Legend:
Assay type in all cases: biochemical
[1] = biological target: T1, Aβ42 self-aggregation (Homo sapiens, UniProt P05067); assay: biochemical; details: for inhibition at 20 µM: read-out: Aβ42 Self-Aggreg. Inhib; for Aβ42 Self-Aggreg. Inhib: 20 μM inhibitor, absence of copper, thioflavin-T fluorescence, 37 °C 24 h
T1 construct: Beta-amyloid protein, fragment 1-42; purchased GeneCust
T1 sequence (P05067 672-713 limits assumed): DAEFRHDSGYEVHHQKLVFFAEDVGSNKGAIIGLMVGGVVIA
Method: (§1) The inhibition of Aβ42 aggregation and Cu(II)-induced Aβ42 aggregation, carried out by the RIV–BIM hybrids, was studied using a reported method based on the fluorescence emission of thioflavin T [52, 53].
(§2) Solutions of phosphate buffer 0.215 M at pH = 8.00, Na2CO3 300 μM in distilled water, NaOH 250 mM in distilled water, glycine-NaOH 50 mM buffer at pH = 8.50 and CuCl2 240 μM in phosphate buffer were prepared. Stock solutions of […] of the RIV–BIM compounds were prepared in MeOH (with 20% DMSO). Working solutions of 240 μM of the RIV–BIM hybrids were prepared by the proper dilution of their stock solutions with phosphate buffer. A working solution of glycine-NaOH 50 mM buffer at pH = 8.50 containing 5 μM of thioflavin T (ThT) was prepared daily. Aβ42 (GeneCust) was pre-treated with 1,1,1,3,3,3-hexafluoro-2-propanol (HFIP) to obtain a solution of 0.149 mM by brief sonication and vortexing, which was kept covered overnight at room temperature. From the Aβ42 solution, aliquots of 250 μL were placed into Eppendorf tubes under ice and set to evaporate inside a hood at room temperature overnight. When the contents of the Eppendorf tubes were dried, the Aβ42 aliquots were stored at −20 °C until needed. To obtain the Aβ42 working solution, the Aβ42 aliquots were dissolved with a freshly prepared mixture of 69.5 μL of CH3CN/Na2CO3 (300 μM)/NaOH (250 mM) (48.3/48.3/3.4, v/v/v) by brief sonication and vortexing to obtain an Aβ42 solution of 531.24 μM. To this solution, 392.5 μL of phosphate buffer was added, achieving an Aβ42 working solution of 80 μM. To prepare the incubations, three replicates of Aβ42 alone (30 μL Aβ42 80 μM + 30 μL phosphate buffer), Aβ42 with RIV–BIM (30 μL Aβ42 80 μM + 10 μL RIV–BIM 240 μM + 20 μL phosphate buffer), Aβ42 with copper (30 μL Aβ42 80 μM + 10 μL CuCl2 240 μM + 20 μL phosphate buffer) and Aβ42 with copper and RIV–BIM (30 μL Aβ42 80 μM + 10 μL CuCl2 240 μM + 10 μL RIV–BIM 240 μM + 10 μL phosphate buffer) were placed in Eppendorfs. To obtain the blank solutions, a similar number of Eppendorfs, replacing Aβ42 with phosphate buffer, were prepared. Incubations were performed in a water bath at 37 °C with agitation for 24 h. Afterwards, 180 μL of glycine-NaOH 50 mM buffer at pH = 8.50 containing 5 μM of ThT was added to each Eppendorf and then they were vortexed. Finally, 200 μL of solution from each Eppendorf was placed in the wells of a microplate and fluorescence measurements were monitored using a Spectramax Gemini EM (Molecular Devices) fluorimeter with an excitation wavelength of 446 nm and an emission wavelength of 485 nm. Blank signals were subtracted from the corresponding samples. The fluorescence intensity of the Aβ42 + RIV–BIM solution was compared to that of the Aβ42 solution to obtain the inhibition of Aβ42 self-aggregation for each compound. The fluorescence intensity of the Aβ42 + Cu(II) + RIV–BIM solution was compared to that of the Aβ42 + Cu(II) solution to obtain the inhibition of the Cu(II)-induced Aβ42 aggregation for each hybrid.
(§3) The anti-amyloidogenic capacity of the compounds was assessed in vitro using the thioflavin T (ThT) method. To record fluorescence emission, excitation (446 nm) and emission (485 nm) wavelengths were used. When ThT binds to amyloid fibrils, an increase in absorbance and emission of this dye occurs with concomitant red shifts of the respective spectra. The percent of inhibition of Aβ42 aggregation is shown in Table 1, and the assays were performed in the presence of 20 μM of inhibitor. These concentration conditions were used to overcome solubility problems of some compounds in the aqueous phosphate buffer working medium. […]. […]

[2] = biological target: T2, Cu(II)-induced Aβ42 aggregation (Homo sapiens, UniProt P05067); assay: Inhibition of Cu(II)-induced Aβ42 aggregation (thioflavin T fluorescence); details: for inhibition at 20 µM: read-out: Aβ42 Cu-Ind. Aggreg. Inhib, copper (40 μM), 20 μM inhibitor, thioflavin-T fluorescence, 37 °C 24 h
T2 construct: Beta-amyloid protein, fragment 1-42; purchased GeneCust
T2 sequence (P05067 672-713 limits assumed): as above
Method: as §1, §2, §3

[3] = biological target: T3, Aβ42 + Cu(II) fibrils (Homo sapiens, UniProt P05067); assay: TEM assay of Aβ42 fibrils in the presence of Cu(II); details: 48 h 37 °C; for Aβ42 fibril width: TEM, CAβ42 = CCu = CL = 50 µM, Aβ42 + Cu(II) 6.8 ± 0.3 nm
T3 construct: Beta-amyloid protein, fragment 1-42; purchased Sigma-Aldrich
T3 sequence (P05067 672-713 limits assumed): as above
Method: To perform the TEM assays, commercial Aβ42 purchased from Sigma-Aldrich was pre-treated with pure HFIP, a beta-sheet disruptor, to obtain homogeneous and monomeric Aβ42 [54]. Then, 222 µL of HFIP was added to 1 mg of Aβ42, after which the mixture was vortexed and aliquoted into Eppendorfs. The Eppendorfs were placed in a SpeedVac at 45 °C for 30 min until all HFIP was evaporated. Pre-treated Aβ42 was stored at −20 °C until use. To start the amyloid incubations, pre-treated Aβ42 was equilibrated at room temperature for 30 min. A solution of 5 mM was obtained by dissolution in DMSO and sonication for 5 min. Subsequently, 10 mM HCl was added to obtain a working Aβ42 solution of 200 µM. Stock solutions of Cu(II) and RIV–BIM compounds (4a–d, 5a,b and 5d) at 200 µM were prepared on the same day and working solutions of Aβ42, Aβ42 + Cu(II), Aβ42 + RIV–BIM and Aβ42 + Cu(II) + RIV–BIM (CAβ42 = CCu = CL = 50 µM) were prepared by diluting stock solutions in 10 mM HCl. Working solutions were incubated for 48 h at 37 °C before being analyzed by TEM. Samples were negatively stained with uranyl acetate 2% (w/v) and analyzed at 100 kv with a JEOL JEM 1400 Plus transmission electron microscope. Fibrils of Aβ42 alone were compared with Aβ42 + RIV–BIM fibrils, and fibrils of Aβ42 + Cu(II) were compared with Aβ42 + Cu(II) + RIV–BIM in order to evaluate the inhibition of the amyloid aggregation, and the widths and lengths of fibrils were measured for each sample. The ImageJ program was used to measure the fibrils (n = 200).
When fibrils were incubated in the presence of Cu(II) for 48 h (Figure 6), stronger amyloid elongated aggregation was evidenced. In fact, incubation with Cu(II) in the absence of RIV–BIM compounds (Figure 5a) presented higher aggregation than that corresponding to Aβ42 alone (Figure 5a). Based on the TEM images contained in Figure 6, compounds belonging to the linear series of hybrids (4a–4d) seem to exert minor effects on Cu(II)-induced Aβ42 aggregation according to the previous fluorescence data.
Fibril width for Aβ42 + Cu(II) + RIV–BIM incubations was also measured (Figure 5b). When Aβ42 was incubated with Cu(II) ((6.8 ± 0.3) nm), the amyloid fibrils suffered a width increase of 38.8%, in contrast to Aβ42 alone (Figure 5a).

| SMILES | inhibition at 20 µM [1] [%] | inhibition at 20 µM [2] [%] | Appearance of Aβ42 aggregation in TEM images [3] | Aβ42 fibril width [3] | Aβ42 Self-Aggreg. Inhib [1] | Aβ42 Cu-Ind. Aggreg. Inhib ([2]; copper (40 μM), 20 μM inhibitor, thioflavin-T fluorescence, 37 °C 24 h) [%] |
| --- | --- | --- | --- | --- | --- | --- |
| CCN(C)C(=O)Oc1cccc(CNC(=O)c2cccc3[nH]c(-c4ccccc4O)nc23)c1 [Compound 5b, 3-((2-(2-Hydroxyphenyl)-1H-benzo[d]imidazole-4-carboxamido)methyl) Phenyl Ethylmethylcarbamate] | 58.7 | 60.8 | sparser amyloid aggregation | 4.1 nm |  |  |
| CCN(C)C(=O)Oc1ccc(CCCNC(=O)c2ccc3nc(-c4ccccc4O)[nH]c3c2)cc1 [Compound 4d, 4-(3-(2-(2-Hydroxyphenyl)-1H-benzo[d]imidazole-6-carboxamido)propyl) Phenyl Ethylmethylcarbamate] | 20.1 | 21.3 |  |  | very weakly effective |  |
| CCN(C)C(=O)Oc1cccc(CNC(=O)c2ccc3nc(-c4ccccc4O)[nH]c3c2)c1 [Compound 4b, 3-((2-(2-Hydroxyphenyl)-1H-benzo[d]imidazole-6-carboxamido)methyl) Phenyl Ethylmethylcarbamate] | 39.6 | 48.8 |  | 4.8 nm |  |  |
| CCN(C)C(=O)Oc1cccc(NC(=O)c2cccc3[nH]c(-c4ccccc4O)nc23)c1 [Compound 5a, 3-(2-(2-Hydroxyphenyl)-1H-benzo[d]imidazole-4-carboxamido)phenyl Ethylmethylcarbamate] | 44.5 | 45.4 | sparser amyloid aggregation | 4.9 nm and 4.9 ± 0.2 nm |  |  |
| CCN(C)C(=O)Oc1ccc(CCCNC(=O)c2cccc3[nH]c(-c4ccccc4O)nc23)cc1 [Compound 5d, 4-(3-(2-(2-Hydroxyphenyl)-1H-benzo[d]imidazole-4-carboxamido) Propyl) Phenyl Ethyl(methyl)carbamate] | 42.1 | 41.2 to 60.8 | sparser amyloid aggregation | 3.9 nm |  | 40.3 |
| CCN(C)C(=O)Oc1cccc(NC(=O)c2ccc3nc(-c4ccccc4O)[nH]c3c2)c1 [Compound 4a, 3-(2-(2-Hydroxyphenyl)-1H-benzo[d]imidazole-6-carboxamido)phenyl Ethylmethylcarbamate] | 39 | 41.2 |  | 4.7 nm |  |  |
| CCN(C)C(=O)Oc1cccc(CCNC(=O)c2ccc3nc(-c4ccccc4O)[nH]c3c2)c1 [Compound 4c, 3-(2-(2-(2-Hydroxyphenyl)-1H-benzo[d]imidazole-6-carboxamido)ethyl) Phenylethylmethylcarbamate] | 21.2 | 22 |  | 4.6 nm | very weakly effective |  |
